From ChEMBL document CHEMBL1130900, “Synthesis and structure-activity relationships of 2-pyridones: II. 8-(Fluoro-substituted pyrrolidinyl)-2-pyridones as antibacterial agents” (Bioorg Med Chem Lett, 1998)
Values after ≈ are worked out from the molar mass of the structure shown.

How the values were obtained:
[1] = test system: DNA gyrase (bacterial); test: Compound was tested for bacterial DNA gyrase activity; details: Bacteria
[2] = test system: Streptococcus equinus; test: Antibacterial activity against Gram-positive Streptococcus bovis A5169 was determined; format: functional
[3] = Compound was evaluated for maximal plasma concentration in rat upon 5 mg/kg upon oral administration; format: ADME, organism-based; design: dose 5 mg/kg, route oral
[4] = test system: Enterococcus faecium; test: Antibacterial activity against Enterococcus faecium ATCC 8043 was determined; format: functional
[5] = test system: Escherichia coli; test: Antibacterial activity against Escherichia coli JUHL was determined; format: functional; details: Escherichia coli; read-out: MIC
[6] = test system: Staphylococcus aureus; test: Antibacterial activity against Staphylococcus aureus NCTC-10649M was determined; format: functional
[7] = test system: Providencia stuartii; test: Antibacterial activity against Gram-negative Providencia Stuartii CMX640 was determined; format: functional
[8] = test system: Klebsiella pneumoniae; test: Antibacterial activity against Klebsiella pneumoniae ATCC 8045 was determined; format: functional
[9] = test system: Streptococcus pyogenes; test: Antibacterial activity against Streptococcus pyogenes EES61 was determined; format: functional
[10] = test system: Staphylococcus aureus; test: Effective dose against Staphylococcus aureus NCTC-10649M in mice upon peroral administration; format: functional; details: po
[11] = test system: Staphylococcus aureus; test: Effective dose against Staphylococcus aureus NCTC-10649M in mice upon subcutaneous administration; format: functional; details: sc
[12] = test system: Pseudomonas aeruginosa; test: Antibacterial activity against Pseudomonas aeruginosa A-5007 was determined; format: functional
[13] = test system: Klebsiella aerogenes; test: Antibacterial activity against Enterobacter aerogenes ATCC 13048 was determined; format: functional
[14] = test system: Staphylococcus aureus; test: Antibacterial activity against Staphylococcus aureus A1775 was determined; format: functional
[15] = Oral bioavailability in rat (dose 5 mg/kg); format: ADME, organism-based; details: in vivo
[16] = Compound was tested for its effective dose against Escherichia coli JUHL in mice upon peroral administration; format: functional; details: Mus musculus, po
[17] = test system: Escherichia coli; test: Effective dose against Escherichia coli JUHL in mice upon subcutaneous administration; format: functional; details: sc
[18] = test system: Mus musculus; test: Compound was tested for its effective dose against Staphylococcus aureus NCTC-10649M in mice upon peroral administration; Mice were infected with 1000xLD50; format: functional; details: po
[19] = Streptococcus equinus, read-out: MIC
[20] = Enterococcus faecium, ATCC 8043, read-out: MIC
[21] = Staphylococcus aureus, read-out: MIC
[22] = Providencia stuartii, read-out: MIC
[23] = Klebsiella pneumoniae, ATCC 8045, read-out: MIC
[24] = Streptococcus pyogenes, read-out: MIC
[25] = Pseudomonas aeruginosa, read-out: MIC
[26] = Klebsiella aerogenes, ATCC 13048, read-out: MIC

Row | MIC [2, 19] [µg/mL] | Cmax [3] [ng/mL] | MIC [4, 20] [µg/mL] | MIC [5] [µg/mL] | MIC [6, 21] [µg/mL] | MIC [7, 22] [µg/mL] | MIC [8, 23] [µg/mL] | MIC [9, 24] [µg/mL] | MIC [12, 25] [µg/mL] | MIC [13, 26] [µg/mL] | MIC [14, 21] [µg/mL] | bioavailability [15] [%] | Structure (SMILES) | CC50 [1] [µg/mL] | ED50 [10] [mg/kg/day] | ED50 [11] [mg/kg/day] | ED50 [16] [mg/kg/day] | ED50 [17] [mg/kg/day] | further results
1 | 0.1 (≈ 0.287 µM) | 350 | 0.05 (≈ 0.144 µM) | 0.1 (≈ 0.287 µM) | 0.02 (≈ 0.0574 µM) | 0.78 (≈ 2.24 µM) | 0.1 (≈ 0.287 µM) | 0.1 (≈ 0.287 µM) | 1.56 (≈ 4.48 µM) | 0.39 (≈ 1.12 µM) | 1.56 (≈ 4.48 µM) | 13 | Cc1c(N2CCC(F)C2)c(F)cn2c(=O)c(C(=O)O)cc(C3CC3)c12 (configuration not stated) | 0.6 (≈ 1.72 µM) | > 50 | > 12 | – | – | –
2 | 0.39 (≈ 1.03 µM) | – | 0.2 (≈ 0.53 µM) | 0.1 (≈ 0.265 µM) | 0.01 (≈ 0.0265 µM) | 0.78 (≈ 2.07 µM) | 0.002 (≈ 0.0053 µM) | 0.2 (≈ 0.53 µM) | 0.39 (≈ 1.03 µM) | 0.02 (≈ 0.053 µM) | 3.1 (≈ 8.21 µM) | – | Cc1c(N2C[C@H](CF)[C@@H](N)C2)c(F)cn2c(=O)c(C(=O)O)cc(C3CC3)c12 | – | 11.5 | 1.2 | 3 | 0.4 | –
3 | 0.02 (≈ 0.053 µM) | – | 0.02 (≈ 0.053 µM) | 0.02 (≈ 0.053 µM) | 0.01 (≈ 0.0265 µM) | 0.78 (≈ 2.07 µM) | 0.005 (≈ 0.0132 µM) | 0.02 (≈ 0.053 µM) | 0.39 (≈ 1.03 µM) | 0.05 (≈ 0.132 µM) | 0.39 (≈ 1.03 µM) | – | Cc1c(N2CCC(F)(CN)C2)c(F)cn2c(=O)c(C(=O)O)cc(C3CC3)c12 (configuration not stated) | – | – | – | – | – | –
4 | 0.39 (≈ 1.07 µM) | – | 0.2 (≈ 0.55 µM) | – | – | 1.56 (≈ 4.29 µM) | 0.02 (≈ 0.055 µM) | 0.2 (≈ 0.55 µM) | 1.56 (≈ 4.29 µM) | – | 1.56 (≈ 4.29 µM) | – | Cc1c(N2C[C@@H](N)[C@H](F)C2)c(F)cn2c(=O)c(C(=O)O)cc(C3CC3)c12 (stereo in doubt; 3a-R,R7) | – | 7.3 | 4.8 | > 10 | > 5 | MIC [6]: 0.05 µg/mL (≈ 0.138 µM); MIC [13]: 0.2 µg/mL (≈ 0.55 µM)
5 | 0.02 (≈ 0.0579 µM) | – | 0.02 (≈ 0.0579 µM) | 0.002 (≈ 0.00579 µM) | 0.1 (≈ 0.29 µM) | 0.2 (≈ 0.579 µM) | 0.005 (≈ 0.0145 µM) | 0.02 (≈ 0.0579 µM) | 0.5 (≈ 1.45 µM) | 0.005 (≈ 0.0145 µM) | 0.78 (≈ 2.26 µM) | – | Cc1c(N2CC[C@H](N)C2)c(F)cn2c(=O)c(C(=O)O)cc(C3CC3)c12 [ABT-719] | 0.03 (≈ 0.0869 µM) | 3.4 | 0.6 | 0.6 | 0.1 | –
6 | 0.2 (≈ 0.55 µM) | 900 | 0.1 (≈ 0.275 µM) | 0.02 (≈ 0.055 µM) | 0.02 (≈ 0.055 µM) | 0.78 (≈ 2.15 µM) | 0.05 (≈ 0.138 µM) | 0.1 (≈ 0.275 µM) | 0.39 (≈ 1.07 µM) | 0.05 (≈ 0.138 µM) | 1.56 (≈ 4.29 µM) | 34 | Cc1c(N2C[C@@H](N)[C@@H](F)C2)c(F)cn2c(=O)c(C(=O)O)cc(C3CC3)c12 | – | – | 1.5 | 7.4 | 1.8 | ED50 [18]: 7.7 mg/kg/day
7 | 0.02 (≈ 0.0468 µM) | – | 0.02 (≈ 0.0468 µM) | 0.02 (≈ 0.0468 µM) | 0.01 (≈ 0.0234 µM) | 1.56 (≈ 3.65 µM) | 0.01 (≈ 0.0234 µM) | 0.02 (≈ 0.0468 µM) | 0.39 (≈ 0.912 µM) | 0.05 (≈ 0.117 µM) | 0.78 (≈ 1.82 µM) | – | Cc1c(N2C[C@@H](CN)[C@H](C(F)(F)F)C2)c(F)cn2c(=O)c(C(=O)O)cc(C3CC3)c12 | 6.5 (≈ 15.2 µM) | 2.6 | 0.7 | – | – | –
8 | 0.2 (≈ 0.468 µM) | 800 | 0.1 (≈ 0.234 µM) | 0.2 (≈ 0.468 µM) | 0.005 (≈ 0.0117 µM) | 3.1 (≈ 7.25 µM) | 0.2 (≈ 0.468 µM) | 0.2 (≈ 0.468 µM) | 6.2 (≈ 14.5 µM) | 0.78 (≈ 1.82 µM) | 0.39 (≈ 0.912 µM) | 57 | Cc1c(N2CC[C@H]([C@@H](N)C(F)(F)F)C2)c(F)cn2c(=O)c(C(=O)O)cc(C3CC3)c12 | – | 25 | 11.9 | > 10 | > 4 | –
9 | – | – | – | 0.02 (≈ 0.055 µM) | – | – | – | – | – | – | – | – | Cc1c(N2C[C@@H](N)[C@H](F)C2)c(F)cn2c(=O)c(C(=O)O)cc(C3CC3)c12 (stereo in doubt; 3a) | – | – | – | – | – | MIC [2]: 0.2 µg/mL (≈ 0.55 µM); MIC [4]: 0.1 µg/mL (≈ 0.275 µM); MIC [6]: 0.02 µg/mL (≈ 0.055 µM); MIC [7]: 1.56 µg/mL (≈ 4.29 µM); MIC [8]: 0.02 µg/mL (≈ 0.055 µM); MIC [9]: 0.2 µg/mL (≈ 0.55 µM); MIC [12]: 0.78 µg/mL (≈ 2.15 µM); MIC [13]: 0.05 µg/mL (≈ 0.138 µM); MIC [14]: 0.78 µg/mL (≈ 2.15 µM)
